Assay results from patent EP3390415B1, “(R)- AND (S)-1-(3-(3-N,N-DIMETHYLAMINOCARBONYL)PHENOXYL-4-NITROPHENYL)-1-ETHYL-N,N'-BIS (ETHYLENE)PHOSPHORAMIDATE, COMPOSITIONS AND METHODS FOR THEIR USE AND PREPARATION” (OBI PHARMA, INC., priority 2015, dated 2017).
“And” between values parts separate entries of the source, which are not always exact repeats. Equal entries are not always repeated. Where two headings read alike, the source gives them in different places.

What was measured:
[1] = test system: PLCPRF5; test: In vitro human tumor cell line cytotoxicity assay; assay type: cell-based; conditions: for IC50: Homo sapiens
[2] = test system: HCCC9810; test: In vitro human tumor cell line cytotoxicity assay; assay type: cell-based; conditions: for IC50: Homo sapiens
[3] = test system: HL-60 Clone; test: In vitro human tumor cell line cytotoxicity assay; assay type: cell-based; conditions: read-out: RelIC50
[4] = Pharmacokinetics (TK) after 30-min IV infusion in monkeys; assay type: in vivo, Cynomolgus monkeys; conditions: 2 mg/kg 30-min IV infusion; for MRT inf / clearance / half-life / Vd / concentration at 0.25 hr / concentration at 0.5 hr / concentration at 0.75 hr / concentration at 1 hr / concentration at 2 hr: cynomolgus monkey, plasma; for half-life: read-out: Terminal t1/2 (converted); for Vd: read-out: Vss
Method: (§1) TH 3423 and TH 3424 were tested in no naive monkeys (1 male and one female for each compound at 2 mg/kg) with 30-min intravenous infusion, TK sampling: on Day 1 and Day 15: 0.25, 0.5, 0.75, 1 and 2 hr post infusion initiation. Serum chemistry and hematology: pre-dose (Day 1), day 5, day 8 (pre-dose), day 15 (pre-dose), day 22 and day 28. Clinical observation: Daily during the study, total 35 days. Food consumption: Daily during the study, total 35 days. Bodyweight measurement: Twice weekly for five weeks.

[5] = test system: KG-1; test: In vitro human tumor cell line cytotoxicity assay; assay type: cell-based; conditions: read-out: RelIC50
[6] = test system: HepG2-GFP human hepatocellular carcinoma; test: Orthotopic mouse model of human liver cancer, tumor burden; assay type: in vivo, athymic nude mice; conditions: for tumor inhibition rate IR(%): from final average tumor weights
Method: Female athymic nude mice (6 weeks of age) were used in this study. The animals were purchased from Beijing HFK Bioscience, Co., Ltd and maintained in a High Efficiency Particulate Air Filter (HEPA) filtered environment with cages, food, and bedding sterilized by irradiation or autoclaving. A total of 32 nude mice were used for the study. HepG2-GFP human hepatocellular carcinoma cells (AntiCancer, Inc., San Diego, CA) were incubated with RPMI-1640 (Gibco-BRL, Life Technologies, Inc.), which contained 10% FBS. Cells were grown in a CO2 Water Jacketed Incubator (Forma Scientific) maintaining 37°C and a 5% CO2/95% air atmosphere. Cell viability was determined by trypan blue exclusion analysis. Five female athymic nude mice were injected subcutaneously with a single dose of 5 x 10^6 HepG2-GFP cells. Tumors were harvested when their size reached 1cm^3 and the tumor tissues were then cut into small fragments of 1mm^3. Forty female nude mice were implanted orthotopically with a single piece of tumor fragment, which was derived from a subcutaneous tumor model of HepG2-GFP human hepatocellular carcinoma. The tumor tissue was orthotopically implanted in the right lobe of the liver in each mouse by SOI (Surgical Orthotopic Implantation). Briefly, an upper abdominal incision of 1cm was made under anesthesia. Right lobe of the liver was exposed and a part of the liver surface was injured mechanically by scissors. Then a piece of tumor fragment was fixed within the liver tissue, the liver was returned to the peritoneal cavity and the abdominal wall finally closed. Mice were kept in laminar-flow cabinets under specific pathogen-free-conditions.
Treatment was started three days after tumor implantation when the implanted tumors reached an average size of around 1 mm^2. The 32 tumor-bearing mice were randomly divided into four experimental groups of 8 mice each. Each cage was clearly marked for its group with four mice per cage. […] Table. Groups and treatment protocol
During the period of the study, all of the experimental mice were checked daily for mortality or signs of morbidity. […] The body weights of the mice were measured twice weekly during the study period. Images of tumor growth and progression were acquired twice a week during the period of the study with the FluorVivo imaging system, Model 300/Mag (INDEC, CA, USA). […] Livers were exposed for imaging, after which the tumors were removed and weighted with an electronic balance (Sartorius BS 124 S, Germany). Tumor tissues were kept in formalin for further analysis. Comparisons of body weights and tumor burdens in different groups were analyzed using the Student's t-test with an α = 0.05 (two-sided). After intravenously injection of the test agents, the mice had no lying, no autonomous activity reduction. The experimental animals were generally in good condition. Table. Comparison of mean mice body weight at the end of the study
The progressions of orthotopic HepG2-GFP hepatocellular carcinoma in different groups were monitored by real time imaging. Images were acquired twice a week. Typical tumor images at the end of the study in each group and tumor growth curves derived from the signals of tumor fluorescence, which were analyzed using the Power Station software (INDEC Biosystems, CA, USA), are shown in figure 6 and figure 7, respectively Table. Average tumor size in each group (mm2)

[7] = test system: Jurkat, Clone E6-1; test: In vitro human tumor cell line cytotoxicity assay; assay type: cell-based; conditions: read-out: RelIC50
[8] = test system: T.T; test: In vitro human tumor cell line cytotoxicity assay; assay type: cell-based; conditions: TT, read-out: RelIC50
[9] = test system: C3A; test: In vitro human tumor cell line cytotoxicity assay; assay type: cell-based; conditions: for IC50: Homo sapiens
[10] = Acute toxicity study in monkeys, body weight; assay type: in vivo, Cynomolgus monkeys; parameters: unit not given here; conditions: 2 mg/kg IV infusion
Method: as §1

[11] = test system: KYSE 180; test: In vitro human tumor cell line cytotoxicity assay; assay type: cell-based; conditions: read-out: RelIC50
[12] = both sexes, mean, read-out: Plasma concentration, Mean
[13] = female, read-out: Plasma concentration
[14] = male, read-out: Plasma concentration

In the case of `C[C@H](OP(=O)(N1CC1)N1CC1)c1ccc([N+](=O)[O-])c(Oc2cccc(C(=O)N(C)C)c2)c1` (single isomer, unassigned) [TH3424], the “Max Inhibition%” value [1] is reported as 85.2%, the “Min Inhibition%” value [1] is reported as 1.4% and the IC50 ([1]; PLC-PRF-5, read-out: AbsIC50) is reported as 111 nM. The IC50 ([1]; PLC-PRF-5, read-out: RelIC50) was 128 nM, the “Max Inhibition%” value [2] was 95.4% and the “Min Inhibition%” value [2] was 2.1%. It also gave an IC50 ([2]; read-out: AbsIC50) of 13.9 nM, an IC50 ([2]; read-out: RelIC50) of 13.4 nM and an IC50 [3] of 52.6 nM. For the same compound, the AUCINF ([4]; Mean) was 1461 hr^∗ng/mL, the AUClast ([4]; Mean) was 1459 hr^∗ng/mL and the MRT inf ([4]; both sexes, Mean) was 13.9 min. For the same compound, the clearance ([4]; both sexes, Mean) was 23.7 mL/min/kg, the half-life ([4]; both sexes, Mean) was 10.9 min and the Vd ([4]; both sexes, Mean) was 0.325 L/kg. For the same compound, the concentration at 0.25 hr [4, 12] was 2160 ng/mL, the concentration at 0.5 hr [4, 12] was 2400 ng/mL and the concentration at 0.75 hr [4, 12] was 794 ng/mL. It also gave a concentration at 1 hr [4, 12] of 185 ng/mL, a concentration at 2 hr [4, 12] of 5.64 ng/mL and a concentration at 0.25 hr [4, 13] of 1850 ng/mL. The concentration at 0.5 hr [4, 13] was 2090 ng/mL, the concentration at 0.75 hr [4, 13] was 557 ng/mL and the concentration at 1 hr [4, 13] was 110 ng/mL. For the same compound, the concentration at 2 hr [4, 13] was 3.84 ng/mL, the MRT inf ([4]; female) was 12.9 min and the clearance ([4]; female) was 27.8 mL/min/kg. It also gave a half-life ([4]; female) of 10.9 min, a Vd ([4]; female) of 0.36 L/kg and a concentration at 0.25 hr [4, 14] of 2480 ng/mL. For the same compound, the concentration at 0.5 hr [4, 14] was 2720 ng/mL, the concentration at 0.75 hr [4, 14] was 1030 ng/mL and the concentration at 1 hr [4, 14] was 260 ng/mL. For the same compound, the concentration at 2 hr [4, 14] was 7.43 ng/mL, the MRT inf ([4]; male) was 15 min and the clearance ([4]; male) was 19.3 mL/min/kg. It also gave a half-life ([4]; male) of 10.9 min, a Vd ([4]; male) of 0.289 L/kg and an AUCINF ([4]; female) of 1196 hr^∗ng/mL. It also gave an AUClast ([4]; female) of 1195 hr^∗ng/mL, an AUCINF ([4]; male) of 1726 hr^∗ng/mL and an AUClast ([4]; male) of 1724 hr^∗ng/mL. For the same compound, the IC50 [5] was 15.3 nM, the “Tumor area (mm^2) (mean ± sd)” value ([6]; 2.5mg/kg, QWx6, I.P., Day 35) was 1.2 ± 1.1 mm^2 and 1.2 ± 1.1(Day 35) mm^2 and the “Tumor area (mm^2) (mean ± sd)” value ([6]; 2.5mg/kg, QWx6, I.P., Day 49) was 2.0 ± 2.2 mm^2 and 2.0 ± 2.2(Day 49) mm^2. The “Tumor weight (g) (mean ± sd)” value ([6]; 2.5mg/kg, QWx6, I.P., Day 49) was 0.0081±0.0088 g and 0.0081±0.0088 (Day 49) g, the “average fluorescence imaging readout area as % of that in the negative control group” value ([6]; 2.5 mg/kg, day 35) was “around 8%” and the “average fluorescence imaging readout area as % of that in the negative control group” value ([6]; 2.5 mg/kg, day 49 after treatment) was “around 8%”. The “tumor inhibition rate IR(%)” value ([6]; 2.5 mg/kg) was 94.8%, the “Tumor area (mm^2) (mean ± sd)” value ([6]; 5mg/kg, QWx3, I.P.) was 0 mm^2 and 0.0 ± 0.0 mm^2 and the “Tumor weight (g) (mean ± sd)” value ([6]; 5mg/kg, QWx3, I.P.) was 0 g and 0.0000 ± 0.0000 g. The “tumor inhibition rate IR(%)” value ([6]; 5mg/kg) was 100%, the “average tumor weight as % of that in the negative control group” value ([6]; high dose group, 5mg/kg) was 0% and the “average tumor weight as % of that in the negative control group” value ([6]; low dose group, 2.5mg/kg) was 5.2%. For the same compound, the IC50 [7] was 24 nM, the IC50 [8] was 6 nM and the “Max Inhibition%” value [9] was 98.7%. For the same compound, the “Min Inhibition%” value [9] was -2.1%, the IC50 ([9]; read-out: AbsIC50) was 9.3 nM and the IC50 ([9]; read-out: RelIC50) was 4.1 nM. The body weight ([10]; Mean, Day 1) was 3.34, the body weight ([10]; Mean, Day 4) was 3.26 and the body weight ([10]; Mean, Day 8) was 3.20. For the same compound, the body weight ([10]; Mean, Day 11) was 3.06, the body weight ([10]; female, Day 1) was 3.28 and the body weight ([10]; female, Day 4) was 3.22. The body weight ([10]; female, Day 8) was 3.08, the body weight ([10]; female, Day 11) was 2.94 and the body weight ([10]; male, Day 1) was 3.40. It also gave a body weight ([10]; male, Day 4) of 3.30, a body weight ([10]; male, Day 8) of 3.31 and a body weight ([10]; male, Day 11) of 3.17. For the same compound, the IC50 [11] was 450 nM.
